{"source": "paper PMC10976219", "about": "“Purification and Biochemical Characterization of Polyphenol Oxidase Extracted from Wheat Bran (Wan grano)” (Molecules, 2024)"}
{"system": "T1, wheat PPO (purified wheat bran polyphenol oxidase)", "T1 construct": "gene PPO-A1; native, purified from wheat bran (ammonium sulfate, DEAE-Sepharose, Superdex G-75); approx. 21 kDa on SDS-PAGE, dual bands 21 and 17 kDa", "assay": "spectrophotometric oxidation assay at […] nm, Lineweaver-Burk", "format": "biochemical, Triticum aestivum", "details": "50 mM phosphate pH 6.5, 35 °C, 2-10 mM substrate", "units": {"Km": "mM"}}
{"smiles": "Oc1ccccc1O", "note": "[catechol]", "Km": "6.36 ± 0.71"}
{"smiles": "O=C(O[C@@H]1Cc2c(O)cc(O)cc2O[C@@H]1c1ccc(O)c(O)c1)c1cc(O)c(O)c(O)c1", "note": "[epicatechin gallate]", "Km": "7.9 ± 0.64"}
{"smiles": "Oc1cc(O)c2c(c1)O[C@H](c1ccc(O)c(O)c1)[C@H](O)C2", "note": "[epicatechin]", "Km": "8.01 ± 0.46"}
{"smiles": "O=C(O[C@@H]1Cc2c(O)cc(O)cc2O[C@@H]1c1cc(O)c(O)c(O)c1)c1cc(O)c(O)c(O)c1", "note": "[epigallocatechin gallate]", "Km": "7.7 ± 0.14"}
{"smiles": "Oc1cc(O)c2c(c1)O[C@H](c1cc(O)c(O)c(O)c1)[C@H](O)C2", "note": "[epigallocatechin]", "Km": "9.05 ± 0.18"}
{"smiles": "O=C(O)c1cc(O)c(O)c(O)c1", "note": "[gallic acid]", "Km": "7.05 ± 0.47"}
{"smiles": "Oc1cccc(O)c1O", "note": "[pyrogallic acid]", "Km": "7.37 ± 0.71"}
